Reference: patent EP1053750A1, “Use of proteasome-inhibitor for the induction of programmed cell death (apoptosis)” (Max-Planck-Gesellschaft zur Förderung der Wissenschaften …, priority 1999, dated 2000)
pEC50: −log10 of the molar value. Peptide text beside a SMILES is read from it. * marks the point of attachment. Cbz = O=C(OCc1ccccc1)*; OtBu = CC(C)(C)O*

How the values were obtained:
[1] = test system: chorioallantoic membrane (CAM); test: Chorioallantoic membrane (CAM) assay; type: in vivo, chick embryo; settings: for %CAMs with non-perfused areas: Luconyl Blue injection, positive/total CAMs in parenthesis
Protocol: All experiments with chick embryos were performed in ovo. After aspiration of 2 ml of eggwhite from the pointed side of the egg, a window was cut into the eggshell on embryonic day 3 or 4 (E3, E4). The eggs were resealed with tape and further incubated until E9. […] Approximately 1 cm^2-pieces of the CAM were then cut out, washed in PBS and fixed in Carnoy's solution. After dehydration and embedding in paraffin, 8 µm sections were cut and stained with an anti-BrdU mouse monoclonal antibody (Boehringer Mannheim, Germany) according to the manufacturer's instructions. Counterstaining of the sections was performed with Gill's hematoxylin (Serva, Heidelberg, Germany). Sections were mounted using Aquamount (Merck, Darmstadt, Germany) and photos were taken with a Zeiss Axiophot microscope. […] Control pellets were prepared with an equal amount of Leupeptin or with DMSO as vehicle, respectively. To aid in the visualization of the vascular system, embryos and CAMs were then injected using pulled glass capillaries with 10% Luconyl Blue (BASF, Ludwigshafen, Germany) in PBS, and photographs were taken using a stereomicroscope with camera adapter.
In eight eggs the windows of the egg shells were enlarged under an operation microscope. After a peripheral incision in the CAM was made, the main artery was incised with a pair of ocular scissors, and a glass capillary (World Precision Instruments, Inc. Germany) pulled to the adequate diameter, was inserted and sealed with a drop of cyanoacrylate (Loctite®). Efflux was enabled by making another incision into a main draining vessel. The vascular system was flushed with up to 5 ml of prewarmed (37 -39°C) physiological saline (0.9% NaCI) under mechanically controlled pressure. […] After complete polymerization of the casting solution, the membranes were dissected and macerated in a solution of 5% potassium hydroxide (Fluka, Neu-Ulm, Germany) at 40°C for 1 - 2 days. The resulting corrosion casts of all specimens were freeze dried, mounted and sputter coated. Examination of the microvascular corrosion casts were carried out with a Stereoscan Mk-250 scanning electron microscope (Cambridge, England). Alternatively, in situ fixed CAM segments were cut out, processed for semi-thin sectioning and stained with methylene blue and Azur II. Selected specimens were trimmed for ultrathin sectioning, and counterstained with uranyl acetate and lead citrate.

MDCK epithelial cells = test: Viability assay (MIT assay), MDCK cells; type: cell-based, canine; settings: for pEC50: Canis lupus familiaris, 48 h, 48 h incubation
Protocol: The indicated values are expressed as the percentage of absorbance at 570 nm relative to the absorbance obtained by DMSO treated (control) cells.
Madin Darby canine kidney epithelial cells (MDCK; ATCC CLL-34) were grown in Dulbecco's Modified Eagle's Medium (DMEM) containing 10% FCS, penicillin and streptomycin.
Briefly, the cells were plated either at 3000 cells/well (low density) or 30000 cells/well (high density) onto 96 well plates and grown over night. […] The formazan cystals generated were subsequently dissolved in DMSO and absorption measured at 570 - 650 nm.

BAE cells = test: Viability assay (MIT assay), BAE cells; type: cell-based, bovine; settings: for pEC50: Bos taurus
caspase-1 like activity = test: Caspase activity in lysates of treated HUE cells, substrate Ac-YVAD-AMC; type: cell-based, human; settings: HUE cell lysates, 50 µM, throughout the time course
Protocol: Detection of a caspase-3-like activity in lysates of PSI-treated HUE cells. […] The specific caspase activities are shown as pmol of substrate hydrolyzed/min per µg of protein.
HUE cells (8 x 10^5) were plated onto 10 cm plastic dishes, allowed to attach overnight, and inhibitors were added to a final concentration of 50 µM for the times indicated in Fig. 4. DMSO, which served as the vehicle, was added to a final concentration of 0.1%. Floating and adherent cells were then harvested, lysed in Buffer I (1% Triton X100, 10 mM KCl, 20 mM HEPES pH 7.4, 1.5 mM MgCl2, 0.2 mM EGTA, 1 mM PMSF), snap frozen in liquid nitrogen and stored at -80°C until required. Lysates were centrifuged at 13000 g for 5 min at 4°C, the supernatants collected and protein concentrations determined using the BCA assay. A 40 µl aliquot of each sample was assayed in the presence of 20 µM Ac-DEVD-AMC or Ac-YVAD-AMC substrates (Bachem, Heidelberg, Germany) in Buffer II (50 mM PIPES-KOH pH 7.0, 0.1 mM EDTA, 1 mM DTT, 10% glycerol; total volume 250 µl) for 40 min at 37°C and the fluorescence intensity was measured with an excitation wavelength of 350 nm and emission wavelength of 430 nm. […] Specific activity was expressed as pmol AMC liberated per min and per µg protein in comparison to a standard curve calculated from the amount of free AMC (SIGMA, Deisenhofen, Germany).

[2] = test system: subconfluent primary BAE cells; test: Apoptotic morphology (phase contrast, Hoechst 33342), BAE cells; type: cell-based, bovine; settings: subconfluent BAE cells; 50 µM for 15 - 24 h, or 10 µM after 48 hours
HUE cells [3] = test: Viability assay (MIT assay), HUE cells; type: cell-based, human; settings: for pEC50: Homo sapiens, 48 h, 48 h incubation
HUE cells [4] = test: Apoptotic morphology (phase contrast, Hoechst 33342), HUE cells; type: cell-based, human; settings: subconfluent HUE cells, 50 µM, 18 - 24 hours
Excerpt: Phase contrast pictures are shown on the left, and identical areas which display the nuclear morphology after Hoechst staining are shown on the right. Arrowheads point at nuclei with apoptotic morphology. Scale bars are 50 µm.
Primary bovine aortic endothelial cells (BAE) were isolated from bovine pulmonary aorta according to the method of Schwartz (In Vitro 14 (1978), 966 - 980) and maintained in MDCB131 medium supplemented with 8% fetal calf serum (FCS), penicillin (100 lU/ml) and streptomycin (100 µg/ml) at 5% CO2. Human umbilical vein endothelial cells (HUE), an immortalized human umbilical vein endothelial cell line (ATCC CRL-1730) were cultured under the same conditions. Madin Darby canine kidney epithelial cells (MDCK; ATCC CLL-34) were grown in Dulbecco's Modified Eagle's Medium (DMEM) containing 10% FCS, penicillin and streptomycin.

[5] = sub (low density, subconfluent)
[6] = EC50 confluent versus subconfluent, 2880 min

## CC[C@H](C)[C@H](NC(=O)OCc1ccccc1)C(=O)N[C@@H](CCC(=O)OC(C)(C)C)C(=O)N[C@@H](C)C(=O)N[C@H](C=O)CC(C)C [PSI, carbobenzoxy-L-isoleucyl-y-t-butyl-L-glutamyl-L-alanyl-L-leucinal] (Cbz-IE(OtBu)AL-aldehyde)
[1]; 0.31 µg/disc, methylcellulose disc on CAM for 48 h
  %CAMs with non-perfused areas: 0(0/10) %
[1]; 1.0 µg/disc, methylcellulose disc on CAM for 48 h
  %CAMs with non-perfused areas: 56.3 (18/32) %
[1]; 3.1 µg/disc, methylcellulose disc on CAM for 48 h
  %CAMs with non-perfused areas: 85.7 (12/14) %
[1]; CAM area directly under the disc
  densities of the capillary plexus and first order vessels (corrosion casts): rarified
[1]; methylcellulose disc on CAM for 48 h, cells in close contact with the disc
  TUNEL labeling of cell nuclei in CAM sections: Intense labeling
MDCK epithelial cells; con (confluent)
  pEC50: 5.51
MDCK epithelial cells; [5]
  pEC50: 7.80
MDCK epithelial cells; [6]
  x difference: 194 fold
BAE cells; BAE, EC50 confluent versus subconfluent, 2880 min
  x difference: 340 fold
BAE cells; 96 h, BAE cells seeded at high density, grown to confluency for 4 days
  pEC50: 5.09
BAE cells; BAE, con (grown to confluency for 4 days), 48 h incubation
  pEC50: 5.09
BAE cells; BAE, sub (low density, subconfluent), 48 h incubation, viability reduced to 50% of DMSO control
  pEC50: 7.62
caspase-1 like activity
  caspase-1 like activity: could not be detected
[2]
  morphological changes associated with programmed cell death: cytoplasmic shrinkage and bleb formation as well as extensive nuclear condensation and fragmentation
HUE cells [3]; [6]
  x difference: 1119 fold
HUE cells [3]; con (grown to confluency)
  pEC50: 5.11
HUE cells [3]; [5]
  pEC50: 8.15
HUE cells [4]
  induction of apoptosis (nuclear morphology): Induction of apoptosis
